This passage reports Ki results from US8501794B2, “Compounds as cannabinoid receptor ligands” (priority 2007, dated 2013).

Like-named read-outs stand apart in the source and are kept apart here.

One test addresses T1, rat CB2 (Rattus norvegicus, UniProt Q9QZN9).
T1 sequence (Q9QZN9 1-360): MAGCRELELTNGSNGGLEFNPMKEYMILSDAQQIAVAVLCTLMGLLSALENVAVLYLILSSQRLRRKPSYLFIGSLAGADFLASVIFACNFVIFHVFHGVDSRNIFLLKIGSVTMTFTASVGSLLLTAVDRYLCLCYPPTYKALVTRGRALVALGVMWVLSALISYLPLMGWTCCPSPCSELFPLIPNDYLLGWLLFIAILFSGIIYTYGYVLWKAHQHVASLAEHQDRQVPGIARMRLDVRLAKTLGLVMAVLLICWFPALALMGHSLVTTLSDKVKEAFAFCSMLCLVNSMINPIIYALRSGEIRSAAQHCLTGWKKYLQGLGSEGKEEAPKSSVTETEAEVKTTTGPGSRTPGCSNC
The test can be described thus: rat CB2 radioligand binding assay ([3H]CP-55,940 competition). Also on record: expressed in transfected cells; host or cells: HEK293.

A further test has as its target T2, human CB2 receptors (Homo sapiens, UniProt P34972).
T2 construct: expressed in transfected cells; host or cells: HEK293
Kind of test: human CB2 radioligand binding assay ([3H]CP-55,940 competition).

Setting [1] is: HEK293 membranes, 0.5 nM [3H]CP-55,940, read-out: rat CB2 (Ki).
Where [2] appears, read: HEK293 membranes, 0.5 nM [3H]CP-55,940, read-out: human CB2 (Ki).

T2 sequence (P34972 whole entry): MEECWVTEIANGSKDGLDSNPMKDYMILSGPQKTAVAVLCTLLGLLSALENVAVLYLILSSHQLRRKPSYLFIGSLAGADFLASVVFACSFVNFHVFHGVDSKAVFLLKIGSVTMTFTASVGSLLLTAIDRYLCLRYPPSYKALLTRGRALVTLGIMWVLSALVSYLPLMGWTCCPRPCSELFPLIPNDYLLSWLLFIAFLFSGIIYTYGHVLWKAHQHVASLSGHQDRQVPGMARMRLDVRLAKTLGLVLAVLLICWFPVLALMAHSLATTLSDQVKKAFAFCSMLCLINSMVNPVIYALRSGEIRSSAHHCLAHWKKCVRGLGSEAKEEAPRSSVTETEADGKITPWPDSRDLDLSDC

Turning to `CCCCc1cn(C(C)(C)C)s/c1=N\C(=O)[C@]1(C)CC[C@H](NC(=O)OCC)C1(C)C` [Example 216, Ethyl (1S,3R)-3-({[(5Z)-4-butyl-2-tert-butylisothiazol-5(2H)-ylidene]amino}carbonyl)-2,2,3-trimethylcyclopentylcarbamate], the values for the inhibition constant Ki on rat CB2 (setting [1]) and at human CB2 receptors (setting [2]) were 299 nM and 160 nM, respectively.
Turning to `CCCCc1cn(C(C)(C)C)s/c1=N\C(=O)c1cc(C=NOC)ccc1OC` [Example 57, N-[(5Z)-4-butyl-2-tert-butylisothiazol-5(2H)-ylidene]-2-methoxy-5-[(methoxyimino)methyl]benzamide], the Ki was 18 nM on rat CB2 and 190 nM at human CB2 receptors (setting [2]).
With `COc1ccc(Cl)cc1C(=O)/N=c1\sn(C(C)(C)C)c2c1CC1(CC2)OCCO1` [Example 10, N-[(3Z)-1-tert-butyl-1,4,6,7-tetrahydro-3H-spiro[2,1-benzisothiazole-5,2′-[1,3]dioxolan]-3-ylidene]-5-chloro-2-methoxybenzamide], the Ki on rat CB2 is 42 nM; on human CB2 receptors (setting [2]), 190 nM.
As to `CC(C)(C)n1cc(Cc2ccco2)/c(=N/C(=O)c2cccc(C(F)(F)F)c2F)s1` [Example 70, N-[(5Z)-2-tert-butyl-4-(2-furylmethyl)isothiazol-5(2H)-ylidene]-2-fluoro-3-(trifluoromethyl)benzamide], the results for the Ki at rat CB2 and at human CB2 receptors were 4.2 nM and 34 nM, respectively.
Turning to `CCCCc1cn(C(C)(C)C)s/c1=N\C(=O)c1cc(C(C)C)ccc1OC` [Example 82, N-[(5Z)-4-butyl-2-tert-butylisothiazol-5(2H)-ylidene]-5-isopropyl-2-methoxybenzamide], the Ki at rat CB2 was found to be 15 nM; on human CB2 receptors (setting [2]) it was 160 nM.
For `CCCCc1cn(C(C)(C)C)s/c1=N\C(=O)C1(c2ccc(F)cc2Cl)CCCCC1` [Example 95, N-[(5Z)-4-butyl-2-tert-butylisothiazol-5(2H)-ylidene]-1-(2-chloro-4-fluorophenyl)cyclohexanecarboxamide], the inhibition constant Ki was 2.3 nM at rat CB2 and 7.5 nM on human CB2 receptors.
Regarding `CCCCc1cn(C(C)(C)C)s/c1=N\S(=O)(=O)c1ccccc1` [Example 119, N-[(5Z)-4-butyl-2-tert-butylisothiazol-5(2H)-ylidene]benzenesulfonamide], the inhibition constant Ki is 33 nM on rat CB2 and 170 nM at human CB2 receptors (setting [2]).
Regarding `CCCCc1cn(C(C)(C)C)s/c1=N\C(=O)c1cc(C(F)(F)F)ccc1ONC(C)(C)C` [Example 267, 2-[(tert-butylamino)oxy]-N-[(5Z)-4-butyl-2-tert-butylisothiazol-5(2H)-ylidene]-5-(trifluoromethyl)benzamide], the Ki at rat CB2 turned out to be 1 nM; on human CB2 receptors, 19 nM.
Consider `CCCCc1cn(C(C)(C)C)s/c1=N\C(=O)[C@]1(C)CC[C@H](C(=O)NN2CCCC2)C1(C)C` [Example 249, (1R,3S)—N^1-[(5Z)-4-butyl-2-tert-butylisothiazol-5(2H)-ylidene]-1,2,2-trimethyl-N^3-pyrrolidin-1-ylcyclopentane-1,3-dicarboxamide], for which the inhibition constant (Ki) stood at 325 nM at rat CB2 (setting [1]) and 110 nM on human CB2 receptors (setting [2]).
Consider `CC(C)Cc1cn(C(C)(C)C)s/c1=N\C(=O)c1cc(C(F)(F)F)ccc1OC[C@@H]1CCCN1C` [Example 197, N-[(5Z)-2-tert-butyl-4-isobutylisothiazol-5(2H)-ylidene]-2-{[(2S)-1-methylpyrrolidin-2-yl]methoxy}-5-(trifluoromethyl)benzamide], for which the results for the Ki at rat CB2 (setting [1]) and at human CB2 receptors (setting [2]) were 156 nM and 260 nM, respectively.
As to `CCCCc1cn(C(C)(C)C)s/c1=N\C(=O)OC12CC3CC(CC(C3)C1)C2` [Example 189, 1-adamantyl (5Z)-4-butyl-2-tert-butylisothiazol-5(2H)-ylidenecarbamate], the figures for the Ki on rat CB2 and at human CB2 receptors were 5.3 nM and 39 nM, respectively.
Regarding `CCCCc1cn(C(C)(C)C)s/c1=N\C(=O)C12CCC(C(=O)OC)(CC1)CC2` [Example 108, Methyl 4-({[(5Z)-4-butyl-2-tert-butylisothiazol-5(2H)-ylidene]amino}carbonyl)bicyclo[2.2.2]octane-1-carboxylate], the figures for the Ki at rat CB2 and at human CB2 receptors (setting [2]) were 13 nM and 180 nM, respectively.
Consider `CCCCc1cn(C(C)(C)C)s/c1=N\C(=O)[C@]1(C)CC[C@H](C2=NCCCO2)C1(C)C` [Example 243, (1R,3S)—N-[(5Z)-4-butyl-2-tert-butylisothiazol-5(2H)-ylidene]-3-(5,6-dihydro-4H-1,3-oxazin-2-yl)-1,2,2-trimethylcyclopentanecarboxamide], for which the values for the Ki on rat CB2 and on human CB2 receptors were 14 nM and 41 nM, respectively.
Take `CCCCc1cn(C(C)(C)C)s/c1=N\C(=O)[C@]1(C)CC[C@H](NC(=O)N2CCC2)C1(C)C` [Example 263, N-[(1S,3R)-3-({[(5Z)-4-butyl-2-tert-butylisothiazol-5(2H)-ylidene]amino}carbonyl)-2,2,3-trimethylcyclopentyl]azetidine-1-carboxamide]: the inhibition constant (Ki) on rat CB2 came out at 77 nM; at human CB2 receptors it was 33 nM.
Take `COc1ccc(Cl)cc1C(=O)/N=c1\sn(C(C)(C)C)cc1C(O)c1cccs1` (stereo not drawn) [Example 44, N-[(5Z)-2-tert-butyl-4-[hydroxy(thien-2-yl)methyl]isothiazol-5(2H)-ylidene]-5-chloro-2-methoxybenzamide]: the Ki at rat CB2 came to 2.1 nM; on human CB2 receptors, 27 nM.
For the compound `COc1ccc(Cl)cc1C(=O)/N=c1\sn(C(C)(C)C)cc1CCN1CCOCC1` [Example 12, N-[(5Z)-2-tert-butyl-4-(2-morpholin-4-ylethyl)isothiazol-5(2H)-ylidene]-5-chloro-2-methoxybenzamide], the inhibition constant (Ki) on rat CB2 came to 12 nM; at human CB2 receptors (setting [2]), 230 nM.
Regarding `CCCCc1cn(C(C)(C)C)s/c1=N\C(=O)[C@]1(C)CC[C@H](C(=O)NC[C@@H]2CCCO2)C1(C)C` [Example 226, (1R,3S)—N^1-[(5Z)-4-butyl-2-tert-butylisothiazol-5(2H)-ylidene]-1,2,2-trimethyl-N^3-[(2S)-tetrahydrofuran-2-ylmethyl]cyclopentane-1,3-dicarboxamide], the results for the Ki on rat CB2 and on human CB2 receptors were 132 nM and 250 nM, respectively.
The like results for `COc1ccc(C#N)cc1C(=O)/N=c1\sn(C(C)(C)C)cc1Cc1cccs1` [Example 53, N-[(5Z)-2-tert-butyl-4-(thien-2-ylmethyl)isothiazol-5(2H)-ylidene]-5-cyano-2-methoxybenzamide] were, in that order, 2.6 nM and 59 nM.
Turning to `CCCCc1cn(C(C)(C)C)s/c1=N\C(=O)[C@]1(C)CC[C@H](NC(=O)N2CCCC2)C1(C)C` [Example 244, N-[(1S,3R)-3-({[(5Z)-4-butyl-2-tert-butylisothiazol-5(2H)-ylidene]amino}carbonyl)-2,2,3-trimethylcyclopentyl]pyrrolidine-1-carboxamide], the Ki was 150 nM on rat CB2 (setting [1]) and 42 nM on human CB2 receptors.
Turning to `CCCCc1cn(C(C)(C)C)s/c1=N\C(=O)[C@]1(C)CC[C@H](C(=O)NCc2cccnc2)C1(C)C` [Example 235, (1R,3S)—N^1-[(5Z)-4-butyl-2-tert-butylisothiazol-5(2H)-ylidene]-1,2,2-trimethyl-N^3-(pyridin-3-ylmethyl)cyclopentane-1,3-dicarboxamide], the inhibition constant (Ki) is 258 nM at rat CB2 (setting [1]) and 320 nM at human CB2 receptors (setting [2]).
As to `CCCCc1cn(C(C)(C)C)s/c1=N\C(=O)[C@H]1CC[C@@](C)(C(=O)NC)C1(C)C` [Example 182, (1R,3S)—N-[(5Z)-4-butyl-2-tert-butylisothiazol-5(2H)-ylidene]-N^1,1,2,2-tetramethylcyclopentane-1,3-dicarboxamidetetramethylcyclopentane-1,3-dicarboxamide], the inhibition constant Ki on rat CB2 was found to be 327 nM; on human CB2 receptors, 350 nM.
Consider `CCCCc1cn(C(C)(C)C)s/c1=N\C(=O)OCC(C)(C)C` [Example 187, Neopentyl (5Z)-4-butyl-2-tert-butylisothiazol-5(2H)-ylidenecarbamate], for which the Ki worked out at 8.2 nM at rat CB2 and 38 nM on human CB2 receptors.
Consider `CCCCc1cn(C(C)(C)C)s/c1=N\C(=O)[C@@H]1CC[C@](C)(NC(N)=O)C1(C)C` [Example 246, (1R,3S)-3-[(aminocarbonyl)amino]-N-[(5Z)-4-butyl-2-tert-butylisothiazol-5(2H)-ylidene]-2,2,3-trimethylcyclopentanecarboxamide], for which the values for the inhibitory constant (Ki) on rat CB2 and on human CB2 receptors (setting [2]) were 38 nM and 150 nM, respectively.
As to `CCCCc1cn(C(C)(C)C)s/c1=N\C(=O)C12CC3CC(C1)CC(C(=O)OC)(C3)C2` [Example 265, Methyl 3-({[(5Z)-4-butyl-2-tert-butylisothiazol-5(2H)-ylidene]amino}carbonyl)adamantane-1-carboxylate], the Ki on rat CB2 is 0.07 nM; on human CB2 receptors, 0.32 nM.
Regarding `CCCCc1cn(C(C)(C)C)s/c1=N\C(=O)[C@]1(C)CC[C@H](C(=O)N2CC(O)C2)C1(C)C` [Example 180, (1R,3S)—N-[(5Z)-4-butyl-2-tert-butylisothiazol-5(2H)-ylidene]-3-[(3-hydroxyazetidin-1-yl)carbonyl]-1,2,2-trimethylcyclopentanecarboxamide], the results for the Ki on rat CB2 and at human CB2 receptors (setting [2]) were 37 nM and 260 nM, respectively.
For the compound `COCCc1cn(C(C)(C)C)s/c1=N\C(=O)c1cc(Cl)ccc1OC` [Example 11, N-[(5Z)-2-tert-butyl-4-(2-methoxyethyl)isothiazol-5(2H)-ylidene]-5-chloro-2-methoxybenzamide], on rat CB2, affinity was put at a Ki of 29 nM.
